In ChEMBL document CHEMBL1201862, “PubChem BioAssay data set” (2004):
The source made the active and inactive calls.

How the values were obtained:
[1] = tested on: Streptococcus sp. 'group A'; assay: growth inhibition of control SK(-) GAS strain, dose response, counter-screen for streptokinase expression inhibitor project, luminescence, kanamycin, BacTiterGlo, confirmation (AID 1900); type: functional, organism-based
[2] = target: T1, Streptokinase A (Streptococcus pyogenes serotype M1, UniProt P10520); assay: S. pyogenes streptokinase expression inhibitors, potency, dose response, plasminogen activation absorbance, OD405 (AID 1914); type: functional, Streptococcus pyogenes M1 GAS;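 also: secreted streptokinase activity via plasminogen activation per viability signal from cell pellet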
T1 sequence (P10520 whole entry): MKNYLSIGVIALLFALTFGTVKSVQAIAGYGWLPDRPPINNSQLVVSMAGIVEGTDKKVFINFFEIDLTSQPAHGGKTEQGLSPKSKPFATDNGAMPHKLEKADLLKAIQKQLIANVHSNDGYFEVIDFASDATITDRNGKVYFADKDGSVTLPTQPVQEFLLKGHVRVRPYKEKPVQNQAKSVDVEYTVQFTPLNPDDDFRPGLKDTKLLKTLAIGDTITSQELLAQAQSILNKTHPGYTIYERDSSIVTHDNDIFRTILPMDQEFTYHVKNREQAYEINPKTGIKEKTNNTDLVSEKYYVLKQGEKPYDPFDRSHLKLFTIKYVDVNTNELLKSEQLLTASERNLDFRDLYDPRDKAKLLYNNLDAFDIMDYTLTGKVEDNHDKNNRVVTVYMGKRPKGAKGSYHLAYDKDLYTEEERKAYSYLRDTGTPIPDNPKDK

[3] = target: T2, Mucolipin-3 (Homo sapiens, UniProt Q8TDD5); assay: Dose response cell-based high-throughput screening assay for agonists of the transient receptor potential channel ML3 (TRPML3). [Related pubchem assays: 1526, 1424, 1448 ]; type: functional
T2 sequence (Q8TDD5 whole entry): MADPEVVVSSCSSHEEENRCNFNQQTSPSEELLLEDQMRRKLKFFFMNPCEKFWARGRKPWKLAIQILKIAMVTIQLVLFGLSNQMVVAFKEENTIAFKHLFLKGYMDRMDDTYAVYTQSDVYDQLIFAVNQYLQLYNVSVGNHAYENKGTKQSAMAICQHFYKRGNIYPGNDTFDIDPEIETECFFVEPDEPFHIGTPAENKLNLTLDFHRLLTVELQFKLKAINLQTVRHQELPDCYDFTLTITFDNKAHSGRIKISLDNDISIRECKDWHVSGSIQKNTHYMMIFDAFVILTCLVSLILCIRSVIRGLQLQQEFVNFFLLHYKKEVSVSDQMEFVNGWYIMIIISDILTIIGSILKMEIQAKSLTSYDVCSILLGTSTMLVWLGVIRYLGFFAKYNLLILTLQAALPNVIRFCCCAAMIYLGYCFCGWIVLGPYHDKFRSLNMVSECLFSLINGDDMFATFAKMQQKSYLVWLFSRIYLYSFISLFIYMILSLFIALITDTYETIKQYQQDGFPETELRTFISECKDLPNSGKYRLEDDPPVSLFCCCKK

[4] = target: Ion channel NompC (Danio rerio, UniProt Q7T1G6); assay: Fluorescence counterscreen assay for TRPML3 agonists: dose response cell-based high-throughput screening assay to identify agonists of the transient receptor potential channel N1 (TRPN1). [Related pubchem assays: 1526, 1424, 1448 ]; type: functional
Ion channel NompC, sequence (Q7T1G6 whole entry): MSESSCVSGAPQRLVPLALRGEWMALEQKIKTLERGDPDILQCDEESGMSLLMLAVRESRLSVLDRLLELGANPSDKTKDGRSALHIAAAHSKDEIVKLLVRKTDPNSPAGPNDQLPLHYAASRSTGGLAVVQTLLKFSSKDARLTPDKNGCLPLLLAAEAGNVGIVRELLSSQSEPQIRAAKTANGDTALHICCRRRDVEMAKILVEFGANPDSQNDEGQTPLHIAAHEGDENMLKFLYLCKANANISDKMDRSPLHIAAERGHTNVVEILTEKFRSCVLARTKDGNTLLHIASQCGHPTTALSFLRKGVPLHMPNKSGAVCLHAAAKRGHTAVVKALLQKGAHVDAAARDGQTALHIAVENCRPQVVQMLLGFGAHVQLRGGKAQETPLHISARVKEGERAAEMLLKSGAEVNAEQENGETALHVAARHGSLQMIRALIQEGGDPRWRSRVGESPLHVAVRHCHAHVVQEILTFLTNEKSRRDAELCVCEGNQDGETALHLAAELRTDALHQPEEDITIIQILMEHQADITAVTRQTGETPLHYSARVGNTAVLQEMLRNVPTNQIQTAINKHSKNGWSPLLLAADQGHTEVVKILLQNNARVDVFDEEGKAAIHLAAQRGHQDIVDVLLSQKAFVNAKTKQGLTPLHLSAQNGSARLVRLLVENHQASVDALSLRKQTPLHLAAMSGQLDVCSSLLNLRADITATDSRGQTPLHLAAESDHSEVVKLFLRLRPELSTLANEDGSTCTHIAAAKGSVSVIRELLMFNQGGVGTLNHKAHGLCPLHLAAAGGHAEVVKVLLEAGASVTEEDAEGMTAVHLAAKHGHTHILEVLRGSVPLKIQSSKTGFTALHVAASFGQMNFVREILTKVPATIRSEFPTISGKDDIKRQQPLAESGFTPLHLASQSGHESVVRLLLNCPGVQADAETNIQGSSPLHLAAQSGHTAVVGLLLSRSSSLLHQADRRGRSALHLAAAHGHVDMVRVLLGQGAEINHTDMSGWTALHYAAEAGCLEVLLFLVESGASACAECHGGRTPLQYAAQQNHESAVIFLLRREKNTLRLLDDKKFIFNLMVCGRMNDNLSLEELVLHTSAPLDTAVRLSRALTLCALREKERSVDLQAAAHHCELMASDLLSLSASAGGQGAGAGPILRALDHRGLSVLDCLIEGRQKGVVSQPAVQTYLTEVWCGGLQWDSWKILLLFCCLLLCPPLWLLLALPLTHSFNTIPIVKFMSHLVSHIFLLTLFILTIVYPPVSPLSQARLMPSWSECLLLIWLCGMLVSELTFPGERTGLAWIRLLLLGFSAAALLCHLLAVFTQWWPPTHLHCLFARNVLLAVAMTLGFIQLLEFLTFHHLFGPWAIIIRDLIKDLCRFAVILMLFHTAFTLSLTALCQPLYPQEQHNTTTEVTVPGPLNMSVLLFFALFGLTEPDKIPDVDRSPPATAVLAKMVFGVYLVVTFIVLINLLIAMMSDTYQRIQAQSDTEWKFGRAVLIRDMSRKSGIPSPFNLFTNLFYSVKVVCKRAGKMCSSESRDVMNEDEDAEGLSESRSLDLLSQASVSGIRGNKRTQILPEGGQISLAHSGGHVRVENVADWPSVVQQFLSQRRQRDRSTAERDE

[5] = tested on: Streptococcus; assay: Group A Streptococcus viability loss, dose response, counter-screen for streptokinase expression inhibitor project, luminescence, BacTiterGlo (AID 1915); type: functional, organism-based;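 also: potency for reduction of bacterial viability or growth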
[6] = target: T3, Heat shock 70 kDa protein 1A (Homo sapiens, UniProt P0DMV8); assay: Hsp70 inhibitors, biochemical, TR-FRET (AID 786)
T3 sequence (P0DMV8 whole entry): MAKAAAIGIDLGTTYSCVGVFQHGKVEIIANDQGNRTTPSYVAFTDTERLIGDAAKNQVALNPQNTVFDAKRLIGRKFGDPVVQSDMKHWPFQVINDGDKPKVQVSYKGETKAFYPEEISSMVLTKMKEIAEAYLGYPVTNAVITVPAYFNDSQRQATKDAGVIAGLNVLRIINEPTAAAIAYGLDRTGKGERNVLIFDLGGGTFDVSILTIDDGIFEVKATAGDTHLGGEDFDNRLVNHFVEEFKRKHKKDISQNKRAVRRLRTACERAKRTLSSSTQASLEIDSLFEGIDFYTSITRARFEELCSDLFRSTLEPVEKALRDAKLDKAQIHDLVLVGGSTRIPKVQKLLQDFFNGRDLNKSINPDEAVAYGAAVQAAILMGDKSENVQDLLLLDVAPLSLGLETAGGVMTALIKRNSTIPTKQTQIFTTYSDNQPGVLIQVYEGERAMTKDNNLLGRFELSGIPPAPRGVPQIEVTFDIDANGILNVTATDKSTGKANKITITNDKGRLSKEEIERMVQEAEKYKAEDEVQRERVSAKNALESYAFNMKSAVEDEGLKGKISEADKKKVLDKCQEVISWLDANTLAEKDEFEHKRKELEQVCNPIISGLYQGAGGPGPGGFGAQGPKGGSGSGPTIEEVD

[7] = target: T3, Heat shock 70 kDa protein 1A; assay: Hsp70 inhibitors, probe displacement, primary screen, biochemical, fluorescence polarization (AID 583)
[8] = cytotoxicity in HEK-293T cells, dose response, cytotoxicity control for BCR NF-kB inhibitor project, luminescence, B-cell screen hits (AID 489021); type: functional, cell-based;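 also: HEK-293T cells carrying an NF-kB luciferase reporter; cells exposed to compound for about 14 hours before viability readout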
[9] = target: Large T antigen (Simian virus 40, UniProt P03070); type: functional, Betapolyomavirus macacae;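 also: Confirmatory-stage PubChem screen for compounds that inhibit SV40 T antigen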
Large T antigen, sequence (P03070 whole entry): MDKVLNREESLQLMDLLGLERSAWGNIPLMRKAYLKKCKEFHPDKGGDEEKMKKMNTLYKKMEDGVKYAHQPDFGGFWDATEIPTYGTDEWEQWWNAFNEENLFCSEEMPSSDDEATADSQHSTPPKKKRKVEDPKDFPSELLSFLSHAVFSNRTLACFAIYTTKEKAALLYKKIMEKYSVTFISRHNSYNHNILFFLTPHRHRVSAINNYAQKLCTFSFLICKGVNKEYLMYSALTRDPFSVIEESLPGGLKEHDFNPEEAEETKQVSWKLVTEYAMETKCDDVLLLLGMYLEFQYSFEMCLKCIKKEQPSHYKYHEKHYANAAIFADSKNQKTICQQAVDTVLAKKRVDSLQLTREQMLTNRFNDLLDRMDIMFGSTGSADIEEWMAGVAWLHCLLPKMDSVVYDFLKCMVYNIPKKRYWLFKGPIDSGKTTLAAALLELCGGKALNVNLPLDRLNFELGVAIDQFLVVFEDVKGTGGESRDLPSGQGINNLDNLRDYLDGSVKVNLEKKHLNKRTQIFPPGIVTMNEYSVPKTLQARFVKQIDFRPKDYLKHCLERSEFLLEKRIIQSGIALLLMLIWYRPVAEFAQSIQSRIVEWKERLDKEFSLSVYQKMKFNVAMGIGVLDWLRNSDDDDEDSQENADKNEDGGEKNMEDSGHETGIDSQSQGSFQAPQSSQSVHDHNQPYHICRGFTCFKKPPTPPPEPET

[10] = target: Neurotensin receptor type 1 (Homo sapiens, UniProt P30989); type: functional;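 also: Image-based confirmatory dose-response assay measuring agonist activity at NTR1; NTR1-expressing U2OS osteosarcoma cells imaged for beta-arrestin GFP spot formation; agonist potency where compounds increase beta-arrestin recruitment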
[11] = target: Albumin (Bos taurus, UniProt P02769); assay: Counterscreen for inhibitors of T-cell receptor (TCR)-CD3 interaction: Fluorescence-based biochemical high throughput dose response assay to identify inhibitors of T-cell receptor (TCR)-CD3 interaction using a TAMRA-labeled BSA probe.; type: functional
Albumin, sequence (P02769 whole entry): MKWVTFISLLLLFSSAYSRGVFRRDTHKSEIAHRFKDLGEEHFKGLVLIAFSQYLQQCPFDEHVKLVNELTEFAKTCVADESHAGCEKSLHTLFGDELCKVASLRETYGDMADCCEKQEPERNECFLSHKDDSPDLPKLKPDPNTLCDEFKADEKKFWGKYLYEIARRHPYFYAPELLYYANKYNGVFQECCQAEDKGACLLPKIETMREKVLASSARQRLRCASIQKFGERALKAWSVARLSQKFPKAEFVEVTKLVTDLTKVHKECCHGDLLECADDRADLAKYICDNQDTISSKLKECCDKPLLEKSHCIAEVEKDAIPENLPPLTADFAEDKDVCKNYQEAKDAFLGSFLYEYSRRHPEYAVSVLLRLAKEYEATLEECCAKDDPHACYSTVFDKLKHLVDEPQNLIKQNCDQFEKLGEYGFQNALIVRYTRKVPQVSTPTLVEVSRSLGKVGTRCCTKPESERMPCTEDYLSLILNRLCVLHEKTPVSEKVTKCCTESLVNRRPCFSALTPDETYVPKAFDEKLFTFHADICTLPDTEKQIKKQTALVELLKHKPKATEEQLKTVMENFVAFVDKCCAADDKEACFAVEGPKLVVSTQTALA

[12] = THP-1 cell cytotoxicity, dose response, cytotoxicity control for Vif-APOBEC3G degradation inhibitor project, THP-1 cells (AID 1117359); type: functional; settings: Human immunodeficiency virus 1, THP-1
[13] = target: T4, Neuropeptide Y receptor type 1 (Homo sapiens, UniProt P25929); type: functional;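 also: HEK293 cells with a CNG channel challenged with NPY then isoproterenol; potency as antagonist that reverses NPY suppression of cAMP signal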
T4 sequence (P25929 whole entry): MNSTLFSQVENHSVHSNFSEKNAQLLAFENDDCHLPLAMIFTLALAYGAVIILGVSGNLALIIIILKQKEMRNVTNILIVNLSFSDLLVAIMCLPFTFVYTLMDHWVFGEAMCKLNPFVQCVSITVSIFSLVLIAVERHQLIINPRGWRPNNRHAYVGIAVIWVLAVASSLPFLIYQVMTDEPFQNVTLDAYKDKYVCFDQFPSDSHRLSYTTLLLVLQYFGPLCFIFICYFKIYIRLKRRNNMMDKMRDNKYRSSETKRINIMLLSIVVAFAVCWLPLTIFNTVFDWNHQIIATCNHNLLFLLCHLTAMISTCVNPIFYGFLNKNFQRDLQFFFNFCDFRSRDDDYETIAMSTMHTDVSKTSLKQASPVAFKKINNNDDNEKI

[14] = target: T5, Neuropeptide Y receptor type 2 (Homo sapiens, UniProt P49146); type: functional, cell-based;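 also: HEK293 cells expressing the receptor and a CNG channel; stimulus was NPY near EC95 followed by isoproterenol to raise cAMP; antagonist potency measured as restoring cAMP signal that NPY suppresses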
T5 sequence (P49146 whole entry): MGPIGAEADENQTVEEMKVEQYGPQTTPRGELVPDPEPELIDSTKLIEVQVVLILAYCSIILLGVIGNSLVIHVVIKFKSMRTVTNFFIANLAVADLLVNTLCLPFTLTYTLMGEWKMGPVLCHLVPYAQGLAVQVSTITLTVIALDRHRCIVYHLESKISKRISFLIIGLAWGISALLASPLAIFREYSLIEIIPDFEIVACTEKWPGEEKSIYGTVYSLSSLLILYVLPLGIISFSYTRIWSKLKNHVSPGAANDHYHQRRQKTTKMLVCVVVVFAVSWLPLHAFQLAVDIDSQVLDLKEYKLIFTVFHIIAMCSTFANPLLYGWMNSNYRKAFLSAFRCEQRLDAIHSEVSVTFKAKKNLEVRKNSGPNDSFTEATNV

[15] = NIH-3T3 fibroblast cytotoxicity, dose response, cytotoxicity control, cell-based, fluorescence, Alamar Blue, secondary assay (AID 2327); type: functional;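 also: NIH-3T3 mouse fibroblasts cultured with fluconazole at 8 µg/mL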
[16] = target: Peroxisome proliferator-activated receptor gamma/Nuclear receptor coactivator 1 (Homo sapiens, UniProt P37231); assay: TR-FRET dose response biochemical High Throughput Screening assay for agonists of the steroid receptor coactivator 1 (SRC-1) recruitment by the peroxisome proliferator-activated receptor gamma (PPAR gamma): non-selective agonists. [Related pubchem assays (depositor defined):AID1300, AID1808, AID504735, AID631]; type: protein assay
[17] = target: Peroxisome proliferator-activated receptor gamma/Nuclear receptor coactivator 3 (Homo sapiens, UniProt P37231); assay: TR-FRET dose response biochemical High Throughput Screening assay for agonists of the steroid receptor coactivator 3 (SRC-3) recruitment by the peroxisome proliferator-activated receptor gamma (PPAR gamma): non-selective agonists. [Related pubchem assays: 1301 (Confirmation screen.), 1048 (Primary screen.)]; type: functional
[18] = C. albicans growth with fluconazole, confirmation, fluorescence, retest (AID 2467); type: functional, cell-based
[19] = target: NS3 (Hepatitis C virus, UniProt A3EZJ3); assay: PubChem AID 2173; design: species or system Hepacivirus hominis
NS3, sequence (A3EZJ3 whole entry): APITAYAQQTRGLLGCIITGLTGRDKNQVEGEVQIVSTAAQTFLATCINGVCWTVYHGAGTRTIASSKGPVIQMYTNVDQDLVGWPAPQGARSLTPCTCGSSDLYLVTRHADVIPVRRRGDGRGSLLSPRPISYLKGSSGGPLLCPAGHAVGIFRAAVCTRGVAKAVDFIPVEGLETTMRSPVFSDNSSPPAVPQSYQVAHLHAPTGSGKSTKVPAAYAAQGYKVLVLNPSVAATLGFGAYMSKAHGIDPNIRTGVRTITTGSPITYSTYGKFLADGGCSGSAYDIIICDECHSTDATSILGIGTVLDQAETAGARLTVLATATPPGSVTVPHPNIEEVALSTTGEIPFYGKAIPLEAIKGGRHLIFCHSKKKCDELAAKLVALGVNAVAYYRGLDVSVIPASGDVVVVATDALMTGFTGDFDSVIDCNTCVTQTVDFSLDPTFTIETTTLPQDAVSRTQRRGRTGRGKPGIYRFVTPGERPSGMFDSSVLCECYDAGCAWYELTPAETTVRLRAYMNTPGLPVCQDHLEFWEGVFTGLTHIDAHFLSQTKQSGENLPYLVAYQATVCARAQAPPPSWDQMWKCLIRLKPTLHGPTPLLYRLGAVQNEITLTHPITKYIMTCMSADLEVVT

[20] = target: T6, Serine/threonine-protein phosphatase (Candida dubliniensis (strain CD36 / CBS 7987 / NCPF 3949 / NRRLY-17841) (Yeast), UniProt B9W6M3); assay: calcineurin pathway inhibitors in yeast reporter, dose response, S. cerevisiae, CDRE-lacZ, luminescence, secondary (AID 2388); type: functional, cell-based;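 also: yeast reporter cells carrying a calcineurin-responsive lacZ construct stimulated with calcium chloride; luminescent beta-galactosidase reporter signal in whole cells rather than isolated phosphatase activity; potency for inhibition where a drop in reporter signal means calcineurin blockade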
T6 sequence (B9W6M3 whole entry): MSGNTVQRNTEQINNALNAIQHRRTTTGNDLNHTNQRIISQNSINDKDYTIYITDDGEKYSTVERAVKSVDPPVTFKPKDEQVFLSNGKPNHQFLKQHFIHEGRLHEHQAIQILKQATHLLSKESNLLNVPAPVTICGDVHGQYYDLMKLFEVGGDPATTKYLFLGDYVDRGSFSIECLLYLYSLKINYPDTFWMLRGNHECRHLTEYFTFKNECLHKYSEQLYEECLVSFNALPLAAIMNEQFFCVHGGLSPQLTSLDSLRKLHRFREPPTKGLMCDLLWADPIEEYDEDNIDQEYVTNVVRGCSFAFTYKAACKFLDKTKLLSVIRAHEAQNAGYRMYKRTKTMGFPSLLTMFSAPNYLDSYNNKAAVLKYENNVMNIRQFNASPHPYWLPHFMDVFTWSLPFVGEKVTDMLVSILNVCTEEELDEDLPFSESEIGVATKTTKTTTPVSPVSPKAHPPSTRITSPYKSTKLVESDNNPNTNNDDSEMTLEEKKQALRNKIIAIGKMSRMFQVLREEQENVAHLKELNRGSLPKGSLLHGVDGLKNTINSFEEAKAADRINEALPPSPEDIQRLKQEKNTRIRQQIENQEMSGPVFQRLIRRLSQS

[21] = target: Peroxisome proliferator-activated receptor gamma/Nuclear receptor coactivator 2 (Homo sapiens, UniProt P37231); assay: TR-FRET dose response biochemical High Throughput Screening assay for agonists of the steroid receptor coactivator 2 (SRC-2) recruitment by the peroxisome proliferator-activated receptor gamma (PPAR gamma): non-selective agonists. [Related pubchem assays: 1297, 1032 ]; type: functional
[22] = target: ATP-dependent molecular chaperone HSP82 (Candida albicans (strain WO-1) (Yeast), UniProt C4YTQ8); assay: loss of DOC-induced GRE-beta-galactosidase reporter signal, dose response, Hsp90 inhibitor project, S. cerevisiae, luminescence (AID 2400); type: functional, cell-based;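 also: beta-galactosidase luminescence from glucocorticoid response element reporter as proxy for Hsp90 function; inhibitor potency where signal loss means Hsp90 inhibition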
ATP-dependent molecular chaperone HSP82, sequence (C4YTQ8 whole entry): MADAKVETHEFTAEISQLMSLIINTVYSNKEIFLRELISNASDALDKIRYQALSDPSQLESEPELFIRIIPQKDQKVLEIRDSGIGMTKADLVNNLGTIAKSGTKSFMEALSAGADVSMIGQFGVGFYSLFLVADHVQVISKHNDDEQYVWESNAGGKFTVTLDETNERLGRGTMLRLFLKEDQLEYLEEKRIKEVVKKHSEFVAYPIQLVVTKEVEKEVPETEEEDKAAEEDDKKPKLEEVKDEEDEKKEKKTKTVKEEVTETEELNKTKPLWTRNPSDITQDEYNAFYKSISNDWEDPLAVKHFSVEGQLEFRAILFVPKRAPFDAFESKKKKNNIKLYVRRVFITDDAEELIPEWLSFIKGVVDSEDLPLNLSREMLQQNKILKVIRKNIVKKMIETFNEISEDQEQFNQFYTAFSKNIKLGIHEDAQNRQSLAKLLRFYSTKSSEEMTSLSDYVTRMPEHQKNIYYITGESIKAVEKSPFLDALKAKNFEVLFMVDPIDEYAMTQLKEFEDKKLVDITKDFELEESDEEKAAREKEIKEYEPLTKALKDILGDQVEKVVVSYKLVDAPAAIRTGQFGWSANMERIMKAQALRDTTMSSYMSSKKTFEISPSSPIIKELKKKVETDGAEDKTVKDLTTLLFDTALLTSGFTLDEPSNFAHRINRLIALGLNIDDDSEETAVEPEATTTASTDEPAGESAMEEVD

[23] = target: T7, Long-chain-fatty-acid--AMP ligase FadD28 (Mycobacterium tuberculosis, UniProt P9WQ59); assay: Fluorescence polarization aasay to screen for inhibitors that compete for the binding of FadD28 to a bisubstrate Measured in Biochemical System Using Plate Reader - 2147-01_Inhibitor_Dose_CherryPick_Activity.; type: functional, Mycobacterium tuberculosis H37Rv
T7 sequence (P9WQ59 whole entry): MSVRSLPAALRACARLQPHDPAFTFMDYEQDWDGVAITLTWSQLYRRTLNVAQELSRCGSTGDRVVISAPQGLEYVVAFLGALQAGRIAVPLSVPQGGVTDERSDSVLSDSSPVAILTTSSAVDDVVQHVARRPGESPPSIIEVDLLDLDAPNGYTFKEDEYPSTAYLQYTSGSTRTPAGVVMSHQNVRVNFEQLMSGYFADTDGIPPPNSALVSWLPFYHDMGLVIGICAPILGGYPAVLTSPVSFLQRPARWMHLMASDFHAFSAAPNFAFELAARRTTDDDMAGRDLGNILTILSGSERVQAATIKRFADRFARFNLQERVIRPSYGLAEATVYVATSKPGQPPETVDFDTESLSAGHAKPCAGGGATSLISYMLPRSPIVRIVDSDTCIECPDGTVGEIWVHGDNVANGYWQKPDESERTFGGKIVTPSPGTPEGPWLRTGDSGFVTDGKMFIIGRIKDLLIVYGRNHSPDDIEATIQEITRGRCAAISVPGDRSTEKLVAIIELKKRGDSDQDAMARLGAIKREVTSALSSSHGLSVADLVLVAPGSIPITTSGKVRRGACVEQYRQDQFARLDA

[24] = target: T8, fMet-Leu-Phe receptor (Homo sapiens, UniProt P21462); assay: FPR ligands, dose response (AID 519); type: functional
T8 sequence (P21462 whole entry): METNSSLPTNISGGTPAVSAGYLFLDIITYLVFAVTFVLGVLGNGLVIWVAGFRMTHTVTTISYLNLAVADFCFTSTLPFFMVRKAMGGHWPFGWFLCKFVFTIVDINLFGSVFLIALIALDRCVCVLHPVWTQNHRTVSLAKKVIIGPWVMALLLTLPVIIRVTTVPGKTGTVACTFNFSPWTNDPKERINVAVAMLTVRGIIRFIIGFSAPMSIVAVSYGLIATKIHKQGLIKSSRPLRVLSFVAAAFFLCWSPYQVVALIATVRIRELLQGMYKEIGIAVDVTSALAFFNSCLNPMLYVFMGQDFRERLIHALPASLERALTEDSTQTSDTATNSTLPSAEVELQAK

Cc1cc(C)n(-c2nc(C)nc(NCc3ccccc3)n2)n1
EC50 [1]: 42.4 µM (active)
EC50 [2]: > 150 µM (not active)
EC50 [3]: > 29.9 µM (not active)
EC50 [4]: > 29.9 µM (not active)
EC50 [5]: > 150 µM (not active)

C=CCOC(=O)C(C#N)c1nc2ccccc2nc1N1CCCC1 (centres undefined)
IC50 [6]: > 100 µM (not active)
IC50 [7]: > 100 µM (not active)

COc1cc(C[C@@H]2C(=O)OC[C@H]2Cc2ccc(OC)c(OC)c2)ccc1O
IC50 [8]: > 80 µM (inactive)

O=c1cc(-c2ccc(O)cc2)oc2cc(O)c(C3OC(CO)C(O)C(O)C3O)c(O)c12 (centres undefined)
IC50 [9]: 21.4 µM (active)
EC50 [10]: 2.71 µM (active)
IC50 [11]: > 94.1 µM (inactive)
CC50 [12]: > 40 µM (active)

COc1ccccc1C1CN=NC12CCCc1ccccc1C2=O (centres undefined)
EC50 [3]: 1.83 µM (active)
EC50 [4]: > 29.9 µM (not active)

c1ccc(COc2ccc(OCCCCN3CCCCC3)cc2)cc1
IC50 [13]: 9.46 µM (active)
IC50 [14]: > 35 µM (not active)

COc1ccc(OC)c(C2C(C(=O)c3cc4ccccc4o3)=C(O)C(=O)N2c2cc(C)on2)c1 (centres undefined)
EC50 [15]: > 150 µM (inactive)
EC50 [16]: > 79.4 µM (inactive)
EC50 [17]: > 79.4 µM (not active)
EC50 [18]: 0.046 µM (active)
IC50 [19]: 5.29 µM (active)
EC50 [20]: > 180 µM (inactive)
EC50 [21]: 36 µM (not active)
EC50 [22]: 21.6 µM (active)
AC50 [23]: > 100 µM (inactive)
Ki [24]: 36.6 µM (inactive)

CCOc1ccccc1N1Cc2cc(C)c(C)cc2C1
IC50 [6]: > 100 µM (not active)
IC50 [7]: > 100 µM (not active)

COc1ccc2[nH]c3c(=O)n(CCCC(=O)NC4CCCCC4C)c(=S)[nH]c3c2c1 (centres undefined)
IC50 [19]: 45.7 µM (not active)
